Here are results for one compound from patent EP4134440B1, “MALVA SYLVESTRIS FERMENTATION PRODUCT AND USE THEREOF” (Kabushiki Kaisha Yakult Honsha, priority 2020, dated 2021).

Assay [1] deals with B16 mouse melanoma cells (B16-F1). Kind of assay: Melanin production suppression test: intracellular melanin production level. It counts as cell-based. The settings on record: 72 h, three days in 0.5 mM theophylline-containing medium, concentration expressed as evaporation residue concentration. The protocol: (§1) As cells, B16 mouse melanoma cells (B16-F1) were used. Cells passaged 5-10 times, counting from the time of purchase, were used in the test. As medium, DMEM containing 5 or 10% FBS was used.
A quantity of 500 µL of DMEM medium containing 5% FBS was placed in a 24-well plate, and B16 melanoma cells were seeded 1.4 × 10^4 cells/well ([…]), then cultured for 24 hours at 37°C under 5% CO2. Thereafter, the medium was replaced with 1 mL of 0.5 mM theophylline-containing medium containing a test sample, and the cells were cultured for another three days. […]
After culture was completed, the cells were washed twice with PBS(-) and fixed with 99.5% ethanol. […] After allowing to cool, the entire amount of cell lysate was transferred to a 96-well plate, and the 405 nm absorbance was measured. The intracellular melanin production level per culture well was determined from a calibration curve that used synthetic melanin, and the intracellular melanin production level relative to the control was determined by the following formula. […]
The melanin production-suppressing activity of the obtained fermentation supernatants or unfermented plant extract was measured using B16 melanoma cells in the same way as in Test Example 2. […]

Assay [2] shares this test system. The experiment in a line: Melanin production suppression test: intracellular protein level (BCA method). The assay is classed as cell-based. The settings on record: 72 h, three days in 0.5 mM theophylline-containing medium, concentration as evaporation residue concentration, * = estimated value. As to the method: as §1
A quantity of 500 µL of DMEM medium containing 5% FBS was placed in a 24-well plate, and B16 melanoma cells were seeded 1.4 × 10^4 cells/well (7.5 × 10^4 cells/cm^2), then cultured for 24 hours at 37°C under 5% CO2. Thereafter, the medium was replaced with 1 mL of 0.5 mM theophylline-containing medium containing a test sample, and the cells were cultured for another three days.
As the test sample, a fermentation supernatant by each lactic acid bacterium or unfermented Malva sylvestris extract was added to make a blend ratio (volume ratio) of 0.5%, 1%, 2%, or 5% in the medium, taking the undiluted sample solution as 100%. As a control, RO water was added to the medium in the same blend ratios instead of the fermentation supernatant by each lactic acid bacterium or unfermented Malva sylvestris extract. […]
The cell lysate was diluted ten-fold by ultrapure water (milli-Q water) and assayed by the BCA method (Pierce BCA Protein assay kit) using BSA as the reference protein, and the intracellular protein level relative to the control was determined using the following formula. […]

≈ marks a conversion by molar mass, not a printed value.

Turning to `OC[C@H]1O[C@@H](Oc2ccc(O)cc2)[C@H](O)[C@@H](O)[C@@H]1O` [compound 15, Arbutin], the IC50 (commonly the midpoint of a concentration-inhibition curve) in assay [1] is 340 µg/mL (≈ 1250 µM); in assay [2] it was 1200 µg/mL (≈ 4410 µM).
